Assay [1] relates to Glycine max. Briefly: Activity of soybean sterol C24-methyltransferase 1.
The test system of assay [2] is Glycine max. Briefly: Ratio of Kcat to Kinact for soybean sterol C24-methyltransferase 1.
Assay [3] is described as follows: Inhibition of sunflower sterol C24-methyltransferase 1. Set-up: species or system Helianthus annuus.
A short description of assay [4]: Inhibition of soybean sterol C24-methyltransferase 1. More on the design: species or system Glycine max.

The results in this text go back to ChEMBL document CHEMBL1155117, “Cyclobranol: a substrate for C25-methyl sterol side chains and potent mechanism-based inactivator of plant sterol methyltransferase” (Bioorg Med Chem Lett, 2008).

On to `CC(C)=CCC[C@@H](C)[C@H]1CC[C@@]2(C)[C@@H]3CC[C@H]4C(C)(C)[C@@H](O)CC[C@@]45C[C@@]35CC[C@]12C`, for which, in assay [1], the Km (as a rule, the substrate concentration at which the rate is half of its maximum) is 30 µM and the kcat (as a rule, the maximal rate divided by the concentration of active sites) was 0.001 s⁻¹.
Take `CC(C)=C(C)CC[C@@H](C)[C@H]1CC[C@@]2(C)[C@@H]3CC[C@H]4C(C)(C)[C@@H](O)CC[C@@]45C[C@@]35CC[C@]12C` [CYCLOBRANOL]: in assay [1], the Km came to 37 µM and the kcat came to 0.0001 s⁻¹. Besides, the Ratio in assay [2] was found to be 0.04. In assay [3], the Ki (commonly the equilibrium dissociation constant of an inhibitor or competing ligand from its target) is 100 µM. For the same compound, the affinity in assay [4] corresponds to a Ki of 25 µM.
